Experimental data reported in ChEMBL document CHEMBL5614416, “Discovery of novel thiophene[3,2-d]pyrimidine-based tubulin inhibitors with enhanced antitumor efficacy for combined use with anti-pd-l1 immunotherapy in melanoma” (Eur J Med Chem, 2024).
Calls of active or inactive are those of the source. No cut-off for these calls is given here.

How the values were obtained:
[1] = test system: HCT-116; test: Antiproliferative activity against human HCT-116 cells incubated for 48 hrs by MTT assay; type: functional, cell-based; details: HCT-116, 48 h
[2] = test system: MCF7; test: Antiproliferative activity against human MCF7 cells incubated for 48 hrs by MTT assay; type: functional, cell-based; details: MCF7, 48 h
[3] = Inhibition of pig brain tubulin polymerization by spectrophotometric method
[4] = test system: B16-F10; test: Induction of cell cycle arrest in mouse B16-F10 cells assessed as accumulation of cells at G1 phase at 0.5 nM incubated for 12 hrs by flow cytometry (reference value: 52.0 %); type: functional
[5] = test system: B16-F10; test: Induction of cell cycle arrest in mouse B16-F10 cells assessed as accumulation of cells at G2 phase at 1 nM incubated for 12 hrs by flow cytometry (reference value: 13.6 %); type: functional
[6] = test system: B16-F10; test: Induction of cell cycle arrest in mouse B16-F10 cells assessed as accumulation of cells at G1 phase at 2 nM incubated for 12 hrs by flow cytometry (reference value: 52.0 %); type: functional
[7] = test system: B16-F10; test: Induction of cell cycle arrest in mouse B16-F10 cells assessed as accumulation of cells at G2 phase at 2 nM incubated for 12 hrs by flow cytometry (reference value: 13.6 %); type: functional
[8] = test system: B16-F10; test: Induction of apoptosis in mouse B16-F10 cells assessed as late apoptotic cells at 0.5 nM incubated for 12 hrs by Annexin V-FITC/PI staining based flow cytometry (reference value: 2.39 %); type: functional
[9] = test system: B16-F10; test: Induction of apoptosis in mouse B16-F10 cells assessed as early apoptotic cells at 1 nM incubated for 12 hrs by Annexin V-FITC/PI staining based flow cytometry (reference value: 3.81 %); type: functional
[10] = test system: B16-F10; test: Induction of apoptosis in mouse B16-F10 cells assessed as late apoptotic cells at 1 nM incubated for 12 hrs by Annexin V-FITC/PI staining based flow cytometry (reference value: 2.39 %); type: functional
[11] = test system: B16-F10; test: Induction of apoptosis in mouse B16-F10 cells assessed as necrotic cells at 1 nM incubated for 12 hrs by Annexin V-FITC/PI staining based flow cytometry (reference value: 0.25 %); type: functional
[12] = test system: B16-F10; test: Induction of apoptosis in mouse B16-F10 cells assessed as early apoptotic cells at 2 nM incubated for 12 hrs by Annexin V-FITC/PI staining based flow cytometry (reference value: 3.81 %); type: functional
[13] = test system: B16-F10; test: Induction of apoptosis in mouse B16-F10 cells assessed as late apoptotic cells at 2 nM incubated for 12 hrs by Annexin V-FITC/PI staining based flow cytometry (reference value: 2.39 %); type: functional
[14] = test system: B16-F10; test: Induction of apoptosis in mouse B16-F10 cells assessed as necrotic cells at 2 nM incubated for 12 hrs by Annexin V-FITC/PI staining based flow cytometry (reference value: 0.25 %); type: functional
[15] = test system: MCF7; test: Inhibition of cell migration in human MCF7 cells assessed as migration rate at 1 nM incubated for 24 hrs by wound healing assay (reference value: 18.1 %); type: functional; parameters: scale not given: the % may be the effect or the level left
[16] = test system: MCF7; test: Inhibition of cell migration in human MCF7 cells assessed as migration rate at 2 nM incubated for 24 hrs by wound healing assay (reference value: 18.1 %); type: functional; parameters: scale not given: the % may be the effect or the level left
[17] = test system: MCF7; test: Induction of apoptosis in human MCF7 cells assessed as decrease in Bcl-2 level upto 30 nM incubated for 24 hrs by Western blot analysis; type: functional, cell-based
[18] = test system: B16-F10; test: Antitumor activity against mouse B16-F10 cells xenografted in C57 mouse at 7 mg/kg, ip qd for 12 days relative to control; type: functional; details: B16-F10, 288 h, time 12 day, read-out: TGI
[19] = Toxicity in C57 mouse xenografted with mouse B16-F10 cells assessed as morphological abnormality in heart at 3.5 mg/kg, ip qd for 12 days in presence of NP-19 by H and E staining based analysis; type: organism-based; details: in vivo, 288 h, time 12 day
[20] = Toxicity in C57 mouse xenografted with mouse B16-F10 cells assessed as morphological abnormality in liver at 7 mg/kg, ip qd for 12 days by H and E staining based analysis; type: organism-based; details: in vivo, 288 h, time 12 day
[21] = Toxicity in C57 mouse xenografted with mouse B16-F10 cells assessed as morphological abnormality in kidney at 7 mg/kg, ip qd for 12 days by H and E staining based analysis; type: organism-based; details: in vivo, 288 h, time 12 day
[22] = Toxicity in C57 mouse xenografted with mouse B16-F10 cells assessed as monocytes count at 7 mg/kg, ip qd for 12 days by biochemical analysis (reference value: 0.080 to 0.610 10^9/L); type: organism-based; details: in vivo, 288 h, time 12 day
[23] = Toxicity in C57 mouse xenografted with mouse B16-F10 cells assessed as lymphocytes level at 7 mg/kg, ip qd for 12 days by biochemical analysis (reference value: 7.300 to 65.500 %); type: organism-based; details: in vivo, 288 h, time 12 day
[24] = Toxicity in C57 mouse xenografted with mouse B16-F10 cells assessed as RDW-CV at 7 mg/kg, ip qd for 12 days by biochemical analysis (reference value: 14.300 to 14.300); type: organism-based; details: in vivo, 288 h, time 12 day
[25] = Toxicity in C57 mouse xenografted with mouse B16-F10 cells assessed as MPV level at 7 mg/kg, ip qd for 12 days by biochemical analysis (reference value: 6.200 to 15.000); type: organism-based; details: in vivo, 288 h, time 12 day
[26] = Toxicity in C57 mouse xenografted with mouse B16-F10 cells assessed as WBC count at 3.5 mg/kg, ip qd for 12 days in presence of NP-19 by biochemical analysis (reference value: 8.240 to 8.340 10^9/L); type: organism-based; details: in vivo, 288 h, time 12 day
[27] = Toxicity in C57 mouse xenografted with mouse B16-F10 cells assessed as MCHC level at 3.5 mg/kg, ip qd for 12 days in presence of NP-19 by biochemical analysis (reference value: 324.000 to 683.000 g/L); type: organism-based; details: in vivo, 288 h, time 12 day
[28] = Toxicity in C57 mouse xenografted with mouse B16-F10 cells assessed as neutrophil count at 3.5 mg/kg, ip qd for 12 days in presence of NP-19 by biochemical analysis (reference value: 2.130 to 5.46 10^9/L); type: organism-based; details: in vivo, 288 h, time 12 day
[29] = Toxicity in C57 mouse xenografted with mouse B16-F10 cells assessed as lymphocytes level at 3.5 mg/kg, ip qd for 12 days in presence of NP-19 by biochemical analysis (reference value: 7.300 to 65.500 %); type: organism-based; details: in vivo, 288 h, time 12 day
[30] = Toxicity in C57 mouse xenografted with mouse B16-F10 cells assessed as RDW-CV at 3.5 mg/kg, ip qd for 12 days in presence of NP-19 by biochemical analysis (reference value: 14.300 to 14.300); type: organism-based; details: in vivo, 288 h, time 12 day
[31] = Toxicity in C57 mouse xenografted with mouse B16-F10 cells assessed as MPV level at 3.5 mg/kg, ip qd for 12 days in presence of NP-19 by biochemical analysis (reference value: 6.200 to 15.000); type: organism-based; details: in vivo, 288 h, time 12 day
[32] = Toxicity in C57 mouse xenografted with mouse B16-F10 cells assessed as PCT level at 3.5 mg/kg, ip qd for 12 days in presence of NP-19 by biochemical analysis (reference value: 0.425 to 5.300); type: organism-based; details: in vivo, 288 h, time 12 day

`Cc1nc(N(C)c2ccc3c(ccn3C)c2)c2sccc2n1` showed an IC50 [1] of 0.38 nM, an IC50 [2] of 9.53 nM and an IC50 [3] of 2540 nM. It also gave an Activity [4] of 21.3%, an Activity [5] of 61.9% and an Activity [6] of 5.24%. It also gave an Activity [7] of 72.8%, an Activity [8] of 7.06% and an Activity [9] of 11%. It also gave an Activity [10] of 7.92%, an Activity [11] of 4.4% and an Activity [12] of 14.2%. For the same molecule, the Activity [13] was 8.65%, the Activity [14] was 1.76% and the Activity [15] was 15.7%. For the same molecule, the Activity [16] was 8.84%, the Activity [17] was “Active” and the inhibition in vivo at 7 mg/kg [18] was 63.3%. For the same molecule, the Activity [19] was “Non-Toxic”, the Activity [20] was “Non-Toxic” and the Activity [21] was “Non-Toxic”. For the same molecule, the Activity [22] was 0.01 10^9/L, the Activity [23] was 2.2% and the Activity [24] was 14.2. For the same molecule, the Activity [25] was 6, the Activity [26] was 4.22 10^9/L and the Activity [27] was 343 g/L. For the same molecule, the Activity [28] was 1.38 10^9/L, the Activity [29] was 2.4% and the Activity [30] was 14. The Activity [31] was 6 and the Activity [32] was 0.179.
